Measurements taken from PubChem BioAssay (NCI).
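Method: 48-hour compound exposure of cells in 96-well plates, five concentrations, linear interpolation of endpoints. Here, GI50 denotes the concentration required for 50% inhibition of growth. The concentration for full growth arrest is given as TGI.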

What was measured:
Assay in all cases: NCI-60 cell line screen, 48 h
A498 renal = system: A498 renal
HCT-15 colon = system: HCT-15 colon
IGROV1 ovarian = system: IGROV1 ovarian
KM12 colon = system: KM12 colon
LOX IMVI melanoma = system: LOX IMVI melanoma
NCI-H23 lung = system: NCI-H23 lung
SK-MEL-2 melanoma = system: SK-MEL-2 melanoma
HCC-2998 colon = system: HCC-2998 colon
DU-145 prostate = system: DU-145 prostate
T-47D breast = system: T-47D breast

Structure (SMILES) | TGI (A498 renal) [µM] | TGI (HCT-15 colon) [µM] | TGI (IGROV1 ovarian) [µM] | TGI (KM12 colon) [µM] | TGI (LOX IMVI melanoma) [µM] | TGI (NCI-H23 lung) [µM] | TGI (SK-MEL-2 melanoma) [µM] | TGI (HCC-2998 colon) [µM] | GI50 (A498 renal) [µM] | GI50 (HCC-2998 colon) [µM] | GI50 (HCT-15 colon) [µM] | GI50 (IGROV1 ovarian) [µM] | GI50 (KM12 colon) [µM] | GI50 (LOX IMVI melanoma) [µM] | GI50 (NCI-H23 lung) [µM] | GI50 (SK-MEL-2 melanoma) [µM] | GI50 (DU-145 prostate) [µM] | TGI (DU-145 prostate) [µM] | GI50 (T-47D breast) [µM] | TGI (T-47D breast) [µM]
COc1ccc2cc3[n+](cc2c1OC)CCc1cc(O)c(O)cc1-3 | > 100 | > 100 | > 100 | > 100 | > 100 | > 100 |  |  |  |  |  |  |  |  |  |  |  |  |  | 
Cc1nc2cc(N)c(F)cc2[nH]1 | > 100 |  | > 100 | > 100 | > 100 | > 100 | > 100 |  |  |  |  |  |  |  |  |  |  |  |  | 
CCCCc1ccc(-n2c3nc(=O)n(C)c(=O)c-3nc3ccccc32)cc1 | 32.7 | 18.3 | 33.7 | 26.6 |  | 8.19 | 24 | 16.3 |  |  |  |  |  |  |  |  |  |  |  | 
NC1CCCCC1N.O=S(=O)([O-])CCCN1CCOCC1.O=S(=O)([O-])CCCN1CCOCC1.[Pt+4] | > 100 | > 56.6 | > 100 | > 100 | > 59.2 | > 92.2 | 44.5 | > 100 | 49 | 36.3 | 8.4 | 18.1 | 35.1 | 16.2 | 18.2 | 13.3 |  |  |  | 
CCCCCCCCCCC(O)C1CCC(C(O)CCC(O)C2CCC(CCCCCCC[C@H](O)CC3=C[C@@H](C)OC3=O)O2)O1 (stereo partly specified) | > 82 | > 100 | > 100 | 68.1 | > 100 | 69.4 | > 100 | > 100 |  |  |  |  |  | 2.24 |  |  |  |  |  | 
COC1OC(C)C(O)CC1OS(=O)(=O)c1ccc(C)cc1 (stereo unspecified) | > 100 | > 100 | > 100 | > 100 | > 100 | > 100 | > 100 |  |  |  |  |  |  |  |  |  |  |  |  | 
CCOC(=O)C1=C(Nc2ccc(Cl)cc2Cl)OC/C1=N\NS(=O)(=O)c1ccc(C)cc1 | > 100 | > 100 | > 100 | > 100 | > 100 | > 100 | > 100 | > 100 |  |  |  |  |  |  |  |  |  |  |  | 
CCCC(C)C[C@@H](C)CC(C)/C=C(\C)c1oc(=O)c(C)c(O)c1C (stereo partly specified) (tested in a mixture with another compound) |  |  |  | 41.4 | 31.6 |  | 22.8 | 25.5 |  |  |  |  |  |  |  |  |  |  |  | 
Cc1cc(C)nc(NS(=O)(=O)c2ccc(Nc3c4ccc(Cl)cc4nc4c(C(=O)Nc5ccc(S(=O)(=O)N=C(N)N)cc5)cccc34)cc2)n1 | > 100 | > 100 |  | > 100 | > 100 | > 100 |  | > 100 |  |  |  |  |  |  |  |  |  |  |  | 
O=C(Nc1cc[c]([Sb](=[O])([OH])[OH])cc1)c1ccccc1 | > 100 | > 100 | > 100 | > 100 | > 100 | > 100 | > 100 |  | > 100 |  | > 100 | > 100 | > 100 | > 100 | > 100 | > 100 | > 100 | > 100 | > 100 | > 100
COc1c(Cl)c2c(c(OC)c1OC)-c1ccc(SC)c(=O)cc1[C@@H](NC(=O)OCC(F)(F)F)CC2 | < 0.01 | > 61.3 | > 100 | 4.26 | > 100 | > 100 | > 100 | 3.99 | < 0.01 | < 0.01 | < 0.01 | < 0.01 | < 0.01 | < 0.01 | < 0.01 | 4.2 | < 0.01 | 0.871 |  | 
O=C([O][Hg][CH2]C1COCC([CH2][Hg][O]C(=O)c2ccccc2)O1)c1ccccc1 (stereo unspecified) | 31.2 |  | 4.17 | 31.5 | 4.2 | 36.8 | 29.6 |  | 17.1 |  |  | 2.1 | 16.6 | 1.73 | 16.1 | 13.2 | 15.2 | 28.7 |  | 
CCc1nc(N)nc(C(=O)NCCNC(=O)c2nc(N)nc(CC)c2C)c1C | > 100 | > 100 | > 100 | > 100 | > 100 | > 100 | > 100 | > 100 |  |  |  |  |  |  |  |  |  |  |  | 
Nc1ncn(C2C=C(CO)C(O)C2O)c(=O)n1 (stereo unspecified) | > 100 | > 100 | > 100 | > 100 |  |  | > 100 | > 100 |  |  |  |  |  |  |  |  |  |  |  | 
CCOc1ccc(Nc2nc(-c3ccc4c(c3)NC(=O)CO4)cs2)cc1 | 55.4 | > 100 | > 100 | > 100 | > 100 | > 100 | 13.8 |  | 13.6 |  | 4.74 | 15.5 | 11.1 | 5.33 | 6.96 | 3.98 | 30.8 | > 100 | 1.94 | 10.4
COC(=O)C(=O)C(C#N)c1ccc(CC#N)cc1 (stereo unspecified) |  | > 100 | > 100 | > 100 | > 100 | > 100 | > 100 |  |  |  |  |  |  |  |  |  |  |  |  | 
O=c1[nH]c2c3ccccc3ccc2c2cc3c(cc12)OCO3 |  | > 100 | > 100 | > 100 | > 100 | > 100 | > 100 | > 100 |  |  |  |  |  |  |  |  |  |  |  | 
O=C([CH-]C(=O)c1ccccc1)c1ccccc1.O=C([CH-]C(=O)c1ccccc1)c1ccccc1.O=C([CH-]C(=O)c1ccccc1)c1ccccc1.[OH3+].[Y+3] | 43.1 | 22.8 | 62.4 | 24 | 17 | 18.9 | 17.9 | 25.8 | 16.3 | 10.3 | 4.96 | 13.6 | 5.38 | 3.74 | 3.51 | 4.24 |  |  |  | 
CCn1c(O)c(C=N)c(=O)n(CC)c1=O | > 100 | > 100 | > 100 | > 100 | > 100 | > 100 | > 100 | > 100 |  |  |  |  |  |  |  |  |  |  |  | 
O=CN1N=C(c2ccc(Cl)cc2)CC1c1cccc(Nc2ccnc3cc(Cl)ccc23)c1 (stereo unspecified) | 8.97 | > 100 | > 100 | 76.5 | 3.42 | > 100 |  | 35.3 | 0.977 | 3.12 | 1.36 | 1.44 | 1.22 | 1.29 | 1.07 |  | 2.8 | > 100 | 0.817 | 17.7
